Source: patent US7192941B2, “Estradiol metabolites for the treatment of pulmonary hypertension” (priority 2003, dated 2007)

Tests used:
Type in all cases: in vivo, male Sprague Dawley rats
[1] = test system: monocrotaline-induced pulmonary hypertension; experiment: Monocrotaline-induced pulmonary hypertension in rats: organ weights and hemodynamics (central venous pressure); conditions: MCT 60 mg/kg s.c., 10 μg/kg/hour by osmotic minipump, 21 days; for adverse consequences associated with monocrotaline treatment (pulmonary hypertension, increased lung weight, cardiac hypertrophy, right ventricular hypertrophy): FIGS. 1-4
Protocol: (§1) A total of twenty-seven, male Sprague Dawley rats (Charles River, Wilmington, Mass.) (378 +/−12 grams) were utilized in this experiment. Animals were housed in the University of Pittsburgh Medical Center animal care facility (temperature 22° C., light cycle 12 hours, relative humidity 55%). Animals were fed Pro Lab RHM 3000 rodent diet (PMI Nutrition, Inc, St Louis, Mo.) and were given water ad libitum. Institutional guidelines for animal welfare were followed, and the Animal Care and Use Committee approved experimental protocols.
(§2) Animals were randomly assigned to receive subcutaneously saline (1 ml/kg, n=6) or monocrotaline (Sigma, St Louis, Mo.) (MCT, 60 mg/kg subcutaneously) (n=21). Monocrotaline is an agent known to induce pulmonary hypertension. Six hours after the initial injection, control animals were implanted with osmotic minipumps (model 2ML4, Alza, Palo Alto, Calif.) containing vehicle (polyethylene glycol 400, 2.5 μl/hour) (Sigma, St Louis, Mo.), whereas MCT treated animals were implanted with osmotic minipumps containing either vehicle (MCT group; n=7), 2-hydroxyestradiol (Steraloids, Newport, R.I.) (10 μg/kg/hour, MCT+2HE group, n=7) or 2-methoxyestradiol (Steraloids, Newport, R.I.) (10 μg/kg/hour, MCT+2ME group, n=7). Assignment to the MCT, MCT+2HE, and MCT+2ME groups was conducted randomly.
After 21 days animals were weighed, anesthetized with pentobarbital (Sigma, St Louis, Mo.) (50 mg/kg) intraperitoneally, and instrumented for measurements of blood pressure, heart rate and central venous pressure. A PE-50 catheter was inserted into the right jugular vein and advanced approximately one inch and connected to a low-pressure analyzer (LPA, Micro-Med., Inc., Louisville Ky.) for continuous measurements of central venous pressure. […]
Animals were killed by an overdose of anesthetic, and the heart and lungs were removed and weighed. […] Both ventricles were weighed and the right ventricle to left ventricle plus septum ratio was calculated. […]

[2] = test system: proliferating cell nuclear antigen (PCNA); experiment: Cell proliferation (PCNA immunostaining) in lungs, right ventricle and main pulmonary artery of monocrotaline-treated rats; conditions: vs MCT group, 10 μg/kg/hour, 21 days, p<0.001; for inhibition of proliferative response (PCNA staining) in the lungs: FIG. 6A; for inhibition of proliferative response (PCNA staining) in the right ventricle: FIG. 6B; for inhibition of proliferative response (PCNA staining) in the main pulmonary artery: FIG. 6C
Protocol: as §1, §2
The fixed specimens were embedded in paraffin and cut into 4-micron-thick sections for subsequent light microscopy and immunohistochemical analysis.
For the assessment of proliferation, the proliferating cell nuclear antigen (PCNA) was labeled using the primary monoclonal mouse antibody ( 1/200 dilution; Dako, Carpenteria, Calif.) and VEGF expression was measured using a rabbit polyclonal antibody ( 1/50 dilution, Lab Vision, Fremont, Calif.). A polyclonal ED1 antibody (Serotec, Raleigh, N.C.) specific for the monocyte/macrophage cytoplasmatic antigen was used to label vascular (main pulmonary artery) and pulmonary macrophages. For measurement of nonspecific staining, the primary antibody was replaced with phosphate buffered saline (PBS). Sections were washed and further developed according to the directions of the manufacturer (Dako Corporation, Carpinteria, Calif.) using the LSAB2 kit that contained a second antibody linked to […]. Immunochemical staining for PCNA and VEGF were assessed quantitatively with a SAMBA 4000 image analyzer (Image Products International, Chantilly, Va.) using specialized computer software designed for immunostaining analysis (Immuno-Analysis, version 4.1, Microsoft, Richmond, Wash.). The software set density threshold values by averaging several fields on the negative control tissues in which the primary antibody was replaced with PBS. Background subtraction was then performed on every tissue. Ten high power fields (×400) were assessed for staining density, wall thickness or positively marked cells for ED-1. The results for PCNA and VEGF are reported as the labeling index, which represents the percentage of the total examined area that stained positively. Staining intensity of positive areas was also assessed (mean optical density), and a mean quick score was then calculated (mean optical density×labeling index). The inflammatory response data are expressed as the total number of ED1+ cells per ten high power fields
Statistical analyses were performed using the Number Cruncher Statistical software program (Kaysville, Utah). Group comparisons were performed by a one-factor analysis of variance (1-F ANOVA), followed by post-hoc comparison using the Fisher's LSD test. All data are presented as mean ±S.E.M.

[3] = test system: vascular endothelial growth factor (VEGF) expression; experiment: VEGF expression (immunohistochemistry) in lungs of monocrotaline-treated rats; conditions: MCT rats, 10 μg/kg/hour, 21 days, mean ±S.E.M., Control 34.2±2.2, MCT 42.8±2.6, p=0.482
Protocol: as §1
Animals were randomly assigned to receive subcutaneously saline (1 ml/kg, n=6) or monocrotaline (Sigma, St Louis, Mo.) (MCT, 60 mg/kg subcutaneously) (n=21). […]
For the assessment of proliferation, the proliferating cell nuclear antigen (PCNA) was labeled using the primary monoclonal mouse antibody ( 1/200 dilution; Dako, Carpenteria, Calif.) and VEGF expression was measured using a rabbit polyclonal antibody ( 1/50 dilution, Lab Vision, Fremont, Calif.). […] Immunochemical staining for PCNA and VEGF were assessed quantitatively with a SAMBA 4000 image analyzer (Image Products International, Chantilly, Va.) using specialized computer software designed for immunostaining analysis (Immuno-Analysis, version 4.1, Microsoft, Richmond, Wash.). […] Ten high power fields (×400) were assessed for staining density, wall thickness or positively marked cells for ED-1. […]

[4] = test system: small size pulmonary arteries; experiment: Vascular remodeling: wall/media thickness of small size pulmonary arteries (smooth muscle alpha-actin staining) in monocrotaline-treated rats; conditions: vs MCT group (wall thickness increased by 87% vs control); 10 μg/kg/hour, 21 days; p<0.001; FIG. 9
Protocol: as §1
Animals were randomly assigned to receive subcutaneously saline (1 ml/kg, n=6) or monocrotaline (Sigma, St Louis, Mo.) (MCT, 60 mg/kg subcutaneously) (n=21). Monocrotaline is an agent known to induce pulmonary hypertension. […]
For assessment of vascular remodeling, vascular smooth muscle cells in pulmonary arteries were stained with smooth muscle alpha-actin Ab-1 mouse monoclonal antibody ( 1/100 dilution, Lab Vision, Fremont, Calif.). The wall and media thickness were measured in small size pulmonary arteries (50–200 microns) using commercial imaging software. Only vessels with an approximately circular profile were analyzed. […]

Compound	central venous pressure ([1]; FIG. 5)	adverse consequences associated with monocrotaline treatment (pulmonary hypertension, increased lung weight, cardiac hypertrophy, right ventricular hypertrophy) [1]	inhibition of proliferative response (PCNA staining) in the lungs [2]	inhibition of proliferative response (PCNA staining) in the right ventricle [2]	inhibition of proliferative response (PCNA staining) in the main pulmonary artery [2]	VEGF labeling index (percent of the lung tissue stained positive for VEGF) [3]	attenuation of MCT-induced hypertrophy of the media (wall thickness, small size pulmonary arteries) [4]
COc1cc2c(cc1O)CC[C@@H]1[C@@H]2CC[C@]2(C)[C@@H](O)CC[C@@H]12 [2ME, estra-1,3,5 (10)-triene-2-methoxy-3, 17-diol (17β)]	especially effective at reducing central venous pressure	did not demonstrate the same level of adverse consequences	−70%	−77%	−94%	37.6±3.9%	−40%
C[C@]12CC[C@@H]3c4cc(O)c(O)cc4CC[C@H]3[C@@H]1CC[C@@H]2O [2HE, estra-1,3,5 (10)-triene-2,3,17-triol (17β)]	–	did not demonstrate the same level of adverse consequences	−60%	−81%	−83%	37.6±3.3%	−50%
